# Measured values from US20230295571A1, “COMPOSITIONS AND METHODS FOR STEM CELL CHONDROGENESIS” (Washington University, priority 2020, published 2023).
# Key:
# hMSC pellets = assay: Chondrogenesis of hMSC pellets with WNT inhibition (Saf-O, GAG/DNA); type: cell-based, human
# From the text: hMSCs and culture. Discarded and deidentified waste tissue from the iliac crests of adult bone marrow transplant donors was collected in accordance with the institutional review board of Washington University in Saint Louis. Human bone marrow-derived MSCs (hMSCs) were isolated by their physical adherence to plastic culture vessels. Cells were expanded and maintained in an expansion medium consisting of DMEM-low glucose (Thermo Fisher Scientific, #11885092), 1 penicillin/streptomycin (P/S, Thermo Fisher Scientific, #15140-122), 10% lot-selected FBS (Atlanta Biologicals, #S11550), and 1 ng ml^−1 basic fibroblast growth factor (FGF) (R&D Systems, #233-FB). Three individual donors were used as biologic replicates in subsequent experiments.
# WNT-C59 and ML329 treatment for WNT and MITF inhibition. For WNT-C59 treatment for WNT inhibition during chondrogenesis, pellets were treated with either 10 ng ml^−1 TGF-β3 (control group) or a combination of 10 ng ml^−1 TGF-β3 and 1 μM WNT-C59 in a chondrogenic medium from d0 to d42 as appropriate. […]
# Biochemical analysis of cartilaginous matrix production. […] GAG content, as calculated based on the standard curve, was normalized to double-stranded DNA content to obtain the GAG/DNA ratio.
# [1] = system: hiPSC chondrogenic pellets; assay: scRNA-seq of hiPSC chondrogenic pellets with WNT inhibition; type: cell-based, human
# Experimental: On the day of collection for bulk RNA-seq experiments, 3-4 pellets per experimental group were pooled together and washed once with phosphate-buffered saline (PBS), snap-frozen in 300 μl of Buffer RL (Norgen Biotek), and stored at −80° C. until processing for RNA extraction. At harvesting time points for scRNA-seq experiments, 6-8 pellets per experimental group were pooled and digested with 0.04% Type II collagenase solution in DMEM/F12 for 1 h. Cells were washed once with PBS, resuspended in standard freezing medium, and stored in liquid nitrogen until needed.
# WNT-C59 and ML329 treatment for WNT and MITF inhibition. For WNT-C59 treatment for WNT inhibition during chondrogenesis, pellets were treated with either 10 ng ml^−1 TGF-β3 (control group) or a combination of 10 ng ml^−1 TGF-β3 and 1 μM WNT-C59 in a chondrogenic medium from d0 to d42 as appropriate. For WNT-C59 and ML329 treatment (ML, Axon Medchem, HY-101464) for WNT and MITF inhibition during chondrogenesis, pellets were treated with either 10 ng ml^−1 TGF-β3 (control group), a combination of 10 ng ml^−1 TGF-β3 and 1 μM ML, a combination of 10 ng ml^−1 TGF-β3 and 1 μM WNT-C59, or a combination of 10 ng ml^−1 TGF-β3, 1 μM ML and 1 μM WNT-C59 in chondrogenic medium from d0 to d42 as appropriate.
# 10× chromium platform scRNA-seq. Cells were thawed at 37° C. and resuspended in PBS with 0.04% bovine serum albumin at a concentration of 2000 cells per μl. Cell suspensions were submitted to the GTAC sequencing core at Washington University in St. Louis for library preparation and sequencing. In brief, 10,000 cells per sample were loaded on a Chromium Controller (10× Genomics) for single capture. Libraries were prepared using Single Cell 3′ Library & Gel Bead Kit v2 (#120237 10× Genomics) following the manufacture's instruction. A single cell emulsion (Gel Bead-In-EMulsions, GEMs) is created by making barcoded cDNA unique to each individual emulsion. A recovery agent was added to break GEM and cDNA was then amplified. A library is produced via end repair, dA-tailing, adapter ligation, post-ligation cleanup with SPRIselect, and sample index PCR. The quality and concentration of the amplified cDNA were evaluated by Bioanalyzer (Agilent 2100) on a High Sensitivity DNA chip (Agilent, #5065-4401). The only cDNA with an average library size of 260-620 bp were used for sequencing. Sequencing was performed by IIlumina HiSeq2500 with the following read length: 26 bp for Read1, 8 bp for i7 Index, and 98 bp for Read2. We generally acquired ˜180 million reads per library (sample). A species mixing experiment (mouse adipose stem cells and human iPSCs, 1:1 mixture) was also performed prior to running on the actual sample to ensure good quality of single-cell capture (i.e., cell doublet rate<5%).
# Preprocessing of scRNA-seq data. Paired-end sequencing reads were processed by Cell Ranger (10× Genomics software, version 2.0.0). Reads were aligned to the GRCh38 (version 90) for genome annotation, demultiplexing, barcode filtering, and gene quantification. Cell Ranger also removes any barcode that has less than 10% of the 99th percentile of total unique molecular identifiers (UMI) counts per barcode as these barcodes are considered to be associated with empty droplets. After this quality control, gene barcode matrices for each sample were generated by counting the number of UMIs for a given gene (as a row) in the individual cell (as a column). For each sample, ˜1300-2500 cells were captured.
# Unsupervised clustering analysis and annotation. To assess the difference in the composition of cell populations, global unsupervised clustering analysis was performed for our scRNA-seq datasets. First, gene barcode matrices were input into the Seurat R package (version 2.4). Then, the low-quality cells with less than 200 or more than 7000 detected genes or if their mitochondrial gene content was more than 5% were removed. […]
# [2] = trajectory vs TGF-β3-treated pellets
compound,measurement,setting,value
Cc1cc(-c2ccc(CC(=O)Nc3ccc(-c4cccnc4)cc3)cc2)ccn1 [WNT-C59],GAG/DNA ratio of hMSC pellets,"hMSC pellets; donor 1 and donor 3, vs TGF-β3 alone",significantly increased
same,chondrogenesis of hMSC pellets,"hMSC pellets; hMSCs from 3 donors, WNT-C59 during pellet culture",increased
same,neural cells and melanocytes in pellets,[1]; WNT-C59-treated pellets d7-d42,significantly decreased
same,percentage of BMP4-expressing cells,"[1]; d14, all clusters except ISG15/IFI6/MX1+ chondrocytes",decreased percentage
same,percentage of GDF5 and BMPR1B expressing cells,"[1]; d14, all clusters vs TGF-β3-treated",remarkably increased percentage
same,percentage of cells expressing BMPR2,"[1]; d14, several chondrocyte subpopulations",decreased
same,expression of most WNTs,"[1]; d14 and d28 pellets, particularly proliferative cells",decreased expression
same,FRZB expression in chondrocyte population,[1]; d14 pellets,upregulated
same,ID2 (neurogenic marker) in proliferative cells,[1]; d14 pellets,decreased
same,PRG4 in mesenchymal cells,[1]; d14 pellets,increased
same,mesenchyme and chondrocytes content,[1]; d14 pellets vs TGF-β3 only,more
same,IFI6 and ISG15 (mature-hypertrophic chondrocyte markers),[1]; d28 pellets,downregulated
same,expression of ACAN and COMP,[1]; d28 pellets vs standard-treated,increased
same,chondrogenic markers,[1]; [2],enriched expression
same,neurogenic markers,[1]; [2],"little, if any"
same,ACAN expression in pseudotime,[1]; vs TGF-β3 alone,earlier induction
same,COL2A1 and SOX9 expression in pseudotime,[1]; vs TGF-β3 alone,higher levels
same,SOX2 expression in pseudotime,[1]; vs TGF-β3 alone,earlier decrease
